# Active and inactive are the calls of the source. The calls are words filed in the database; no cut-off is given here.
# What was measured:
# L02 = experiment: Cytotoxicity against human LO2 cells assessed as reduction in cell viability after 24 hrs by MTT assay; format: cell-based; details: L02, 24 h
# HepG2 [1] = experiment: Induction of apoptosis in human HepG2 cells assessed as decrease in Bcl2 expression after 24 hrs by Western blot analysis; format: functional, cell-based
# HepG2 [2] = experiment: Induction of apoptosis in human HepG2 cells assessed as increase in late apoptotic cells after 24 hrs by Annexin-V-FITC/propidium iodide staining based flow cytometry; format: functional, cell-based
# QGY-7703 [3] = experiment: Cytotoxicity against human QGY7703 cells assessed as reduction in cell viability after 24 hrs by MTT assay; format: functional, cell-based
# QGY-7703 [4] = experiment: Induction of apoptosis in human QGY7703 cells assessed as increase in late apoptotic cells after 24 hrs by Annexin-V-FITC/propidium iodide staining based flow cytometry; format: functional, cell-based
# RAW264.7 [5] = experiment: Inhibition of LPS-stimulated NFkappaB activation in mouse RAW264.7 cells assessed as reduction in IkappaB phosphorylation at 1 to 10 uM pretreated for 2 hrs followed by LPS-stimulation and measured after 15 mins by Western blot method; format: cell-based
# SMMC-7721 [6] = experiment: Induction of apoptosis in human SMMC7721 cells assessed as increase in early apoptotic cells after 24 hrs by Annexin-V-FITC/propidium iodide staining based flow cytometry; format: functional, cell-based
# QGY-7703 [7] = experiment: Induction of apoptosis in human QGY7703 cells assessed as increase in early apoptotic cells after 24 hrs by Annexin-V-FITC/propidium iodide staining based flow cytometry; format: functional, cell-based
# HepG2 [8] = experiment: Inhibition of TNFalpha-stimulated NFkappaB activation in human HepG2 cells assessed as reduction in IkappaB phosphorylation pretreated for 2 hrs followed by LPS-stimulation and measured after 15 mins by Western blot method; format: cell-based
# SMMC-7721 [9] = experiment: Induction of apoptosis in human SMMC7721 cells assessed as increase in late apoptotic cells after 24 hrs by Annexin-V-FITC/propidium iodide staining based flow cytometry; format: functional, cell-based
# [10] = target: Transcription factor p65 (Homo sapiens) (UniProt Q04206); experiment: Inhibition of TNFalpha-stimulated NFkappaB p65 nuclear translocation in human HepG2 cells at 5 uM pretreated for 2 hrs followed by LPS-stimulation and measured after 15 mins by DAPI staining based microscopic analysis; format: cell-based
# HepG2 [11] = experiment: Inhibition of TNFalpha-stimulated NFkappaB activation in human HepG2 cells assessed as reduction in p65 phosphorylation pretreated for 2 hrs followed by LPS-stimulation and measured after 15 mins by Western blot method; format: cell-based
# [12] = Cytotoxicity against mouse RAW264.7 cells assessed as cell viability at 10 uM after 24 hrs by MTT assay relative to control; format: cell-based; details: read-out: Activity
# HepG2 [13] = experiment: Induction of apoptosis in human HepG2 cells assessed as increase in Bax expression after 24 hrs by Western blot analysis; format: functional, cell-based
# [14] = target: Transcription factor p65 (Mus musculus) (UniProt Q04207); experiment: Inhibition of LPS-stimulated NFkappaB p65 nuclear translocation in mouse RAW264.7 cells at 5 uM pretreated for 2 hrs followed by LPS-stimulation and measured after 15 mins by DAPI staining based microscopic analysis; format: cell-based
# RAW264.7 [15] = experiment: Anti-inflammatory activity in mouse RAW264.7 cells assessed as inhibition of LPS-induced TNFalpha secretion at 10 uM pretreated for 2 hrs followed by LPS stimulation and measured after 22 hrs by ELISA; format: functional, cell-based
# HepG2 [16] = experiment: Cytotoxicity against human HepG2 cells assessed as reduction in cell viability after 24 hrs by MTT assay; format: functional, cell-based
# SMMC-7721 [17] = experiment: Cytotoxicity against human SMMC7721 cells assessed as reduction in cell viability after 24 hrs by MTT assay; format: functional, cell-based
# RAW264.7 [18] = experiment: Anti-inflammatory activity in mouse RAW264.7 cells assessed as inhibition of LPS-induced IL-6 secretion at 10 uM pretreated for 2 hrs followed by LPS stimulation and measured after 22 hrs by ELISA; format: functional, cell-based
# HepG2 [19] = experiment: Induction of apoptosis in human HepG2 cells assessed as increase in early apoptotic cells after 24 hrs by Annexin-V-FITC/propidium iodide staining based flow cytometry; format: functional, cell-based
# RAW264.7 [20] = experiment: Inhibition of LPS-stimulated NFkappaB activation in mouse RAW264.7 cells assessed as reduction in p65 phosphorylation at 1 to 10 uM pretreated for 2 hrs followed by LPS-stimulation and measured after 15 mins by Western blot method; format: cell-based
# HepG2 [21] = experiment: Induction of apoptosis in human HepG2 cells assessed as increase in cleaved caspase 3 expression after 24 hrs by Western blot analysis; format: functional, cell-based
# [22] = Cytotoxicity against human HHL5 cells assessed as reduction in cell viability after 24 hrs by MTT assay; format: cell-based; details: HHL-5, 24 h
# Transcription factor p65 (Mus musculus), sequence (Q04207 whole entry): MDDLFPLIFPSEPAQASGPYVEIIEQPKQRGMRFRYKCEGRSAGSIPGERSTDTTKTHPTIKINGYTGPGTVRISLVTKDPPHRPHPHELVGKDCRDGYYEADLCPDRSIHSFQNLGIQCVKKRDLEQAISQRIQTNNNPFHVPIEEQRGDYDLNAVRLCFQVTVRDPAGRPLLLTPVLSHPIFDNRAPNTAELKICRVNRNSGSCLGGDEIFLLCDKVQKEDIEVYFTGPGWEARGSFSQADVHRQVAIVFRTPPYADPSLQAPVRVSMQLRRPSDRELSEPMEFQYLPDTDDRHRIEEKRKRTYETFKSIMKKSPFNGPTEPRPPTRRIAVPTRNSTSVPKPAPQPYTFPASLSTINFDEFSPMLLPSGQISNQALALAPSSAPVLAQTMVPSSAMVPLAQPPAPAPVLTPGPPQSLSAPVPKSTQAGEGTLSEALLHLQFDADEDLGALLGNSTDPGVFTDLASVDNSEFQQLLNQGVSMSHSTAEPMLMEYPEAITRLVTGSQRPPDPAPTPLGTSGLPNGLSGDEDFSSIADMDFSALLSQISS
# Transcription factor p65 (Homo sapiens), sequence (Q04206 whole entry): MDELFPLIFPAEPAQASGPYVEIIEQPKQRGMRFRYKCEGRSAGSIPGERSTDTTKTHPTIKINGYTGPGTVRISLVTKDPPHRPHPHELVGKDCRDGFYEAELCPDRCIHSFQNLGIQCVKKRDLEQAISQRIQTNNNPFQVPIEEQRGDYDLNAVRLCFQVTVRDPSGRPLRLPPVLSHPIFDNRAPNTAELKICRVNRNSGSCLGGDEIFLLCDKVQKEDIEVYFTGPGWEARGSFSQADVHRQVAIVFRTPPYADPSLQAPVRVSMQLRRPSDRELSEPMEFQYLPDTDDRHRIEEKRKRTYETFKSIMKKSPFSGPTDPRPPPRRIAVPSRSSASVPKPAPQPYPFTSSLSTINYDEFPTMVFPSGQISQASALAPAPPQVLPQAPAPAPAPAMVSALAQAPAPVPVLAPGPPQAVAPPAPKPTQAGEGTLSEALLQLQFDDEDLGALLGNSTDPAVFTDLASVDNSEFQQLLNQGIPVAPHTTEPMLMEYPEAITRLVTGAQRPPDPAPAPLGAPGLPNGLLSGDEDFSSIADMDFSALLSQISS
smiles,measurement,setting,value
COc1cc(/C=C2\CN(S(=O)(=O)c3ccc(NC(C)=O)cc3)C/C(=C\c3ccc(C#N)cc3)C2=O)cc(OC)c1OC,IC50,L02,13.6 µM
same,Activity,HepG2 [1],Dose-dependent effect
same,Activity,HepG2 [2],Dose-dependent effect
same,Activity,QGY-7703 [3],Dose-dependent effect
same,IC50,"QGY-7703 [3]; QGY-7703, 24 h",1.89 µM
same,Activity,QGY-7703 [4],Dose-dependent effect
same,inhibition,RAW264.7 [5],Active
same,Activity,SMMC-7721 [6],Dose-dependent effect
same,Activity,QGY-7703 [7],Dose-dependent effect
same,inhibition,HepG2 [8],Dose-dependent effect
same,Activity,SMMC-7721 [9],Dose-dependent effect
same,inhibition,[10],Active
same,inhibition,HepG2 [11],Dose-dependent effect
same,"viability at 24 h, 10 µM",[12],> 80%
same,Activity,HepG2 [13],Dose-dependent effect
same,inhibition,[14],Active
same,inhibition,RAW264.7 [15],Active
same,Activity,HepG2 [16],Dose-dependent effect
same,IC50,"HepG2 [16]; HepG2, 24 h",2.89 µM
same,Activity,SMMC-7721 [17],Dose-dependent effect
same,IC50,"SMMC-7721 [17]; SMMC-7721, 24 h",1.73 µM
same,inhibition,RAW264.7 [18],Active
same,Activity,HepG2 [19],Dose-dependent effect
same,inhibition,RAW264.7 [20],Active
same,Activity,HepG2 [21],Dose-dependent effect
same,IC50,[22],13.6 µM
